Data: patent US20140155376A1, “PYRROLOPYRAZINE KINASE INHIBITORS” (Hoffmann-La Roche Inc., priority 2010, published 2014)

The molecules below were run against T1, JAK3 (recombinant human kinase domain; h-jak3(810-1124)) (Homo sapiens, UniProt P52333) (assay: Determination of IC50 of Janus Kinase (JAK) inhibition: JAK3, radioactive end-point assay with 33P-ATP). Conditions: JAK3 kinase domain; ATP 1.5 uM, peptide 50 uM, 20 minutes, room temperature, 10% DMSO; read-out: Ic50 h-jak3(810-1124)-sf9-c:no additive.
T1 construct: h-jak3(810- 1124)-sf9-c; made in house; host or cells: Sf9 insect cells
T1 sequence (P52333 810-1124): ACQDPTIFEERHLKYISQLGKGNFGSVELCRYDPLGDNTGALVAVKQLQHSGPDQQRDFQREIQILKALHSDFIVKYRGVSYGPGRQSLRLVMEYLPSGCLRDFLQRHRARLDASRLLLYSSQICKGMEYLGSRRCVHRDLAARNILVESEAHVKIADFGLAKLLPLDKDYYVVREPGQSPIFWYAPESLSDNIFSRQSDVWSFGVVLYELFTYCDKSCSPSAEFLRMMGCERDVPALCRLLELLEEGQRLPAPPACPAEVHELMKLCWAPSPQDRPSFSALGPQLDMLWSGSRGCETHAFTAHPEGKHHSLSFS
Assay type: biochemical
Description: Determination of IC50 of Janus Kinase (JAK) Inhibition:
Enzymes and peptide substrate used are described below: • JAK1: Recombinant human kinase domain from Invitrogen (Cat # PV4774) • JAK3: Recombinant human kinase domain from Millipore (Cat #14-629) or prepared. • JAK2: Recombinant human kinase domain from Millipore (Cat #14-640) • Substrate: N-terminally biotinylated 14-mer peptide derived from activation loop of JAK1 with sequence of the peptide substrate: Biotin-[sequence]
Assay Conditions Used are Described Below: • Assay Buffer: JAK Kinase Buffer: 50 mM Hepes [pH 7.2], 10 mM MgCl2, 1 mM DTT, • 1 mg/ml BSA. The assay is carried out in this buffer. • Assay Format The kinase activity of all three JAK kinases is measured using a radioactive, end-point assay and with trace amounts of ^33P-ATP. The assays are carried out in 96-well polypropylene plates.
All concentrations are final in the reaction mixture and all incubations are carried at room temperature. […] Final concentration of DMSO in the reaction is 10%. • 2) Compounds are preincubated with enzyme (0.5 nM JAK3 (commercially available), 0.2 nM JAK3 (prepared), 1 nM JAK2, 5 nM JAK1) for 10 minutes. • 3) Reactions are initiated by the addition of a cocktail of the two substrates (ATP and peptide premixed in the JAK Kinase Buffer). In the JAK2/JAK3 assays, ATP and the peptide are used at concentrations of 1.5 uM and 50 uM, respectively. JAK1 assay is carried out at an ATP concentration of 10 uM and a peptide concentration of 50 uM. • 4) The duration of the assay for JAK2 and JAK3 is 20 minutes. JAK1 assay is carried out for 40 minutes. With all three enzymes, reactions are terminated by the addition of 0.5M EDTA to a final concentration of 100 mM. • 5) 25 ul of terminated reactions are transferred to 150 ul of a 7.5% (v/v) slurry of streptavidin-coated sepharose beads in MgCl2- and CaCl2-free 1× Phosphate Buffered Saline containing 50 mM of EDTA in 96-well, 1.2 um MultiScreen-BV filter plates. • 6) After a 30-minute incubation, the beads are washed under vacuum with the following buffers: • a. 3 to 4 washes with 200 ul of 2M NaCl. • b. 3 to 4 washes with 200 ul of 2M NaCl plus 1% (v/v) phosphoric acid. • c. 1 wash with water. • 7) Washed plates are dried in a 60° C. oven for between 1 to 2 hours. • 8) 70 ul of Microscint 20 scintillation fluid is added to each well of filter plates and after at least 30 minutes of incubation, radioactive counts are measured in a Perkin-Elmer microplate scintillation counter.

**Q.** Which IC50 does the source give for O=C(NC(C1CC1)C1CC1)c1c[nH]c2ncc(C3CC3)nc12 [Example I-80, 2-Cyclopropyl-5H-pyrrolo[2,3-b]pyrazine-7-carboxylic acid dicyclopropyl-methyl-amide] here?
**A.** Its IC50 is 3.9 nM.

**Q.** For CC(C)NC(=O)c1c[nH]c2ncc(Oc3cccc4[nH]ccc34)nc12 [Example I-274, 2-(1H-Indol-4-yloxy)-5H-pyrrolo[2,3-b]pyrazine-7-carboxylic acid isopropylamide], which IC50 is on record?
**A.** Its IC50 is 353 nM.

**Q.** With CC(C)NC(=O)c1c[nH]c2ncc(Oc3ccc4c(c3)[C@H](NC(=O)c3ccccc3)CC4)nc12 [Example I-286, 2-((R)-3-Benzoylamino-indan-5-yloxy)-5H-pyrrolo[2,3-b]pyrazine-7-carboxylic acid isopropylamide] as the molecule, how does the IC50 read?
**A.** The IC50 was 152 nM.

**Q.** CCNC(=O)c1c[nH]c2ncc(Oc3cccc4ccccc34)nc12 [Example I-261, 2-(Naphthalen-1-yloxy)-5H-pyrrolo[2,3-b]pyrazine-7-carboxylic acid ethylamide] was tested. Which IC50 did it give?
**A.** The IC50 was 2990 nM.

**Q.** How did the IC50 turn out when CCCC[C@H](NC(=O)c1c[nH]c2ncc(C3CC3)nc12)C(C)(C)O [Example I-49, 2-Cyclopropyl-5H-pyrrolo[2,3-b]pyrazine-7-carboxylic acid [(S)-1-(1-hydroxy-1-methyl-ethyl)-pentyl]-amide] was run?
**A.** Its IC50 is 453 nM.

**Q.** Which IC50 does the source give for CC(C)NC(=O)c1c[nH]c2ncc(Oc3cccc(C(C)(C)C)c3)nc12 [Example I-231, 2-(3-tert-Butyl-phenoxy)-5H-pyrrolo[2,3-b]pyrazine-7-carboxylic acid isopropylamide] here?
**A.** Its IC50 is 4220 nM.

**Q.** For CC[C@H](C)NC(=O)c1c[nH]c2ncc(Oc3ccc4c(c3)[C@H](NC(C)=O)CC4)nc12 [Example I-296, 2-((R)-3-Acetylamino-indan-5-yloxy)-5H-pyrrolo[2,3-b]pyrazine-7-carboxylic acid ((S)-sec-butyl)-amide], which IC50 is on record?
**A.** Its IC50 is 22.9 nM.

**Q.** For CCNC(=O)c1c[nH]c2ncc(Oc3ccc4cc[nH]c4c3)nc12 [Example I-273, 2-(1H-Indol-6-yloxy)-5H-pyrrolo[2,3-b]pyrazine-7-carboxylic acid ethylamide], which IC50 is on record?
**A.** The IC50 was 470 nM.

**Q.** Which IC50 does the source give for C[C@H](NC(=O)c1c[nH]c2ncc(-c3ccc(C(=O)N4CCCCC4)s3)nc12)C(C)(C)C#N [Example I-224, 2-[5-(Piperidine-1-carbonyl)-thiophen-2-yl]-5H-pyrrolo[2,3-b]pyrazine-7-carboxylic acid ((S)-2-cyano-1,2,2-trimethyl-ethyl)-amide] here?
**A.** The IC50 was 0.36 nM.

**Q.** How did the IC50 turn out when COc1ccccc1Oc1cnc2[nH]cc(C(=O)NC(C)C)c2n1 [Example I-256, 2-(2-Methoxy-phenoxy)-5H-pyrrolo[2,3-b]pyrazine-7-carboxylic acid isopropylamide] was run?
**A.** Its IC50 is 931 nM.

**Q.** How did the IC50 turn out when CC(=O)NC1Cc2ccc(Oc3cnc4[nH]cc(C(=O)NC(C)C)c4n3)cc2C1 (centres unmarked) [Example I-300, 2-(2-Acetylamino-indan-5-yloxy)-5H-pyrrolo[2,3-b]pyrazine-7-carboxylic acid isopropylamide] was run?
**A.** Its IC50 is 199 nM.

**Q.** With CCc1cnc2[nH]cc(C(=O)NCC(C)(C)CO)c2n1 [Example I-39, 2-Ethyl-5H-pyrrolo[2,3-b]pyrazine-7-carboxylic acid (3-hydroxy-2,2-dimethyl-propyl)-amide] as the molecule, how does the IC50 read?
**A.** Its IC50 is 302 nM.

**Q.** With CCc1cccc(-n2cnc(-c3cnc4[nH]cc(C(=O)N[C@@H](C)C(C)(C)C)c4n3)c2)c1 [Example I-151, 2-[1-(3-Ethyl-phenyl)-1H-imidazol-4-yl]-5H-pyrrolo[2,3-b]pyrazine-7-carboxylic acid ((S)-1,2,2-trimethyl-propyl)-amide] as the molecule, how does the IC50 read?
**A.** Its IC50 is 12.4 nM.

**Q.** Which IC50 does the source give for CCc1ccccc1Oc1cnc2[nH]cc(C(=O)NC(C)C)c2n1 [Example I-238, 2-(2-Ethyl-phenoxy)-5H-pyrrolo[2,3-b]pyrazine-7-carboxylic acid isopropylamide] here?
**A.** Its IC50 is 3850 nM.

**Q.** How did the IC50 turn out when CC(NC(=O)c1c[nH]c2ncc(Oc3ccc(F)cc3F)nc12)C1CC1 (centres unmarked) [Example I-105, 2-(2,4-Difluoro-phenoxy)-5H-pyrrolo[2,3-b]pyrazine-7-carboxylic acid (1-cyclopropyl-ethyl)-amide] was run?
**A.** Its IC50 is 103 nM.

**Q.** Which IC50 does the source give for C=Cc1cccc(-n2cnc(-c3cnc4[nH]cc(C(=O)N[C@@H](C)C(C)(C)C)c4n3)c2)c1 [Example I-163, 2-[1-(3-Vinyl-phenyl)-1H-imidazol-4-yl]-5H-pyrrolo[2,3-b]pyrazine-7-carboxylic acid ((S)-1,2,2-trimethyl-propyl)-amide] here?
**A.** The IC50 was 3 nM.

**Q.** With CC1CCCCC1NC(=O)c1ccc(-c2cnc3[nH]cc(C(=O)N[C@@H](C)C(C)(C)C)c3n2)s1 (stereo partly drawn) [Example I-190, 2-[5-(2-Methyl-cyclohexyl-carbamoyl)-thiophen-2-yl]-5H-pyrrolo[2,3-b]pyrazine-7-carboxylic acid ((S)-1,2,2-trimethyl-propyl)-amide] as the molecule, how does the IC50 read?
**A.** The IC50 was 0.69 nM.

**Q.** C[C@@H](NC(=O)c1c[nH]c2ncc(Oc3ccccc3)nc12)C(C)(C)C [Example I-130, 2-Phenoxy-5H-pyrrolo[2,3-b]pyrazine-7-carboxylic acid ((R)-1,2,2-trimethyl-propyl)-amide] was tested. Which IC50 did it give?
**A.** The IC50 was 659 nM.

**Q.** C[C@H](Cc1ccccc1)NC(=O)c1ccc(-c2cnc3[nH]cc(C(=O)N[C@@H](C)C(C)(C)C)c3n2)s1 [Example I-170, 2-[5-((R)-1-Methyl-2-phenyl-ethylcarbamoyl)-thiophen-2-yl]-5H-pyrrolo[2,3-b]pyrazine-7-carboxylic acid ((S)-1,2,2-trimethyl-propyl)-amide] was tested. Which IC50 did it give?
**A.** The IC50 was 0.58 nM.

**Q.** With CC[C@@H](NC(=O)c1c[nH]c2ncc(C3CC3)nc12)C(C)(C)O [Example I-44, 2-Cyclopropyl-5H-pyrrolo[2,3-b]pyrazine-7-carboxylic acid ((R)-1-ethyl-2-hydroxy-2-methyl-propyl)-amide] as the molecule, how does the IC50 read?
**A.** The IC50 was 46 nM.

**Q.** With CCNC(=O)c1c[nH]c2ncc(Oc3cccc(CC)c3)nc12 [Example I-249, 2-(3-Ethyl-phenoxy)-5H-pyrrolo[2,3-b]pyrazine-7-carboxylic acid ethylamide] as the molecule, how does the IC50 read?
**A.** Its IC50 is 1590 nM.

**Q.** For CC(NC(=O)c1c[nH]c2ncc(C3CC3)nc12)C(C)(C)CO (centres unmarked) [Example I-71, 2-Cyclopropyl-5H-pyrrolo[2,3-b]pyrazine-7-carboxylic acid (3-hydroxy-1,2,2-trimethyl-propyl)-amide], which IC50 is on record?
**A.** Its IC50 is 3.8 nM.

**Q.** CC(C)c1cccc(-n2cnc(-c3cnc4[nH]cc(C(=O)N[C@@H](C)C(C)(C)C)c4n3)c2)c1 [Example I-152, 2-[1-(3-Isopropyl-phenyl)-1H-imidazol-4-yl]-5H-pyrrolo[2,3-b]pyrazine-7-carboxylic acid ((S)-1,2,2-trimethyl-propyl)-amide] was tested. Which IC50 did it give?
**A.** Its IC50 is 25.3 nM.

**Q.** How did the IC50 turn out when CC(NC(=O)c1c[nH]c2ncc(C3CC3)nc12)C1CCOCC1 (centres unmarked) [Example I-85, 2-Cyclopropyl-5H-pyrrolo[2,3-b]pyrazine-7-carboxylic acid [1-(tetrahydro-pyran-4-yl)-ethyl]-amide] was run?
**A.** The IC50 was 72.5 nM.

**Q.** With C[C@H](NC(=O)c1c[nH]c2ncc(C3CC3)nc12)[C@@](C)(O)C(F)(F)F [Example I-53, 2-Cyclopropyl-5H-pyrrolo[2,3-b]pyrazine-7-carboxylic acid ((1S,2R)-3,3,3-trifluoro-2-hydroxy-1,2-dimethyl-propyl)-amide] as the molecule, how does the IC50 read?
**A.** The IC50 was 8.38 nM.

**Q.** With C[C@H](NC(=O)c1c[nH]c2ncc(-c3ccc(C(=O)N[C@H](C)C(C)(C)C)s3)nc12)C(C)(C)C [Example I-209, 2-[5-((R)-1,2,2-Trimethyl-propylcarbamoyl)-thiophen-2-yl]-5H-pyrrolo[2,3-b]pyrazine-7-carboxylic acid ((S)-1,2,2-trimethyl-propyl)-amide] as the molecule, how does the IC50 read?
**A.** The IC50 was 0.47 nM.

**Q.** For CC(C)NC(=O)c1c[nH]c2ncc(Oc3cccc(OC(F)(F)F)c3)nc12 [Example I-230, 2-(3-Trifluoromethoxy-phenoxy)-5H-pyrrolo[2,3-b]pyrazine-7-carboxylic acid isopropylamide], which IC50 is on record?
**A.** Its IC50 is 2610 nM.

**Q.** For C[C@H](NC(=O)c1c[nH]c2ncc(-c3ccc(C(=O)N4CCC(C(=O)O)CC4)s3)nc12)C(C)(C)C [Example I-182, 1-{5-[7-((S)-1,2,2-Trimethyl-propylcarbamoyl)-5H-pyrrolo[2,3-b]pyrazin-2-yl]-thiophene-2-carbonyl}-piperidine-4-carboxylic acid], which IC50 is on record?
**A.** The IC50 was 0.32 nM.

**Q.** With C[C@@H](NC(=O)c1c[nH]c2ncc(C3=CCOCC3)nc12)C(C)(C)O [Example I-110, 2-(3,6-Dihydro-2H-pyran-4-yl)-5H-pyrrolo[2,3-b]pyrazine-7-carboxylic acid ((R)-2-hydroxy-1,2-dimethyl-propyl)-amide] as the molecule, how does the IC50 read?
**A.** Its IC50 is 45.4 nM.

**Q.** How did the IC50 turn out when C[C@H](NC(=O)c1c[nH]c2ncc(Oc3ccccc3)nc12)C1CCCCC1 [Example I-123, 2-Phenoxy-5H-pyrrolo[2,3-b]pyrazine-7-carboxylic acid ((S)-1-cyclohexyl-ethyl)-amide] was run?
**A.** The IC50 was 1330 nM.

**Q.** With C[C@@H](NC(=O)c1c[nH]c2ncc(Oc3ccc(F)cc3F)nc12)C1CCCCC1 [Example I-124, 2-(2,4-Difluoro-phenoxy)-5H-pyrrolo[2,3-b]pyrazine-7-carboxylic acid ((R)-1-cyclohexyl-ethyl)-amide] as the molecule, how does the IC50 read?
**A.** Its IC50 is 442 nM.

**Q.** For CNC(=O)N[C@@H]1CCc2ccc(Oc3cnc4[nH]cc(C(=O)NC(C)C)c4n3)cc21 [Example I-292, 2-[(R)-3-(3-Methyl-ureido)-indan-5-yloxy]-5H-pyrrolo[2,3-b]pyrazine-7-carboxylic acid isopropylamide], which IC50 is on record?
**A.** Its IC50 is 91.7 nM.

**Q.** Which IC50 does the source give for CC(C)NC(=O)c1c[nH]c2ncc(Oc3ccc(F)cc3F)nc12 [Example I-132, 2-(2,4-Difluoro-phenoxy)-5H-pyrrolo[2,3-b]pyrazine-7-carboxylic acid isopropylamide] here?
**A.** Its IC50 is 415 nM.

**Q.** For C[C@H](NC(=O)c1c[nH]c2ncc(-c3ccc(C(=O)N(C)Cc4ccc(F)cc4)s3)nc12)C(C)(C)C [Example I-205, 2-{5-[(4-Fluoro-benzyl)-methyl-carbamoyl]-thiophen-2-yl}-5H-pyrrolo[2,3-b]pyrazine-7-carboxylic acid ((S)-1,2,2-trimethyl-propyl)-amide], which IC50 is on record?
**A.** The IC50 was 0.76 nM.

**Q.** For CC[C@@H](C)NC(=O)c1c[nH]c2ncc(Oc3ccc(F)cc3F)nc12 [Example I-126, 2-(2,4-Difluoro-phenoxy)-5H-pyrrolo[2,3-b]pyrazine-7-carboxylic acid ((R)-sec-butyl)-amide], which IC50 is on record?
**A.** Its IC50 is 190 nM.
